Data reported in the kinase profiling compilation of Christmann-Franck et al. (2016).

What was measured:
Assay in all cases: radiometric filter-binding kinase assay, Kinase HotSpot
Conditions in all cases: compound 0.5 µM; ATP 10 µM
[1] = target: LCK (human) (UniProt P06239)
[2] = target: IRAK1 (human) (UniProt P51617)
[3] = target: CHEK1 (human) (UniProt O14757)
[4] = target: CDC42BPA (human) (UniProt Q5VT25)
[5] = target: STK38 (human) (UniProt Q15208)
[6] = target: ADRBK1 (human) (UniProt P25098)
Sequence of ADRBK1 (human) (P25098 whole entry, looked up): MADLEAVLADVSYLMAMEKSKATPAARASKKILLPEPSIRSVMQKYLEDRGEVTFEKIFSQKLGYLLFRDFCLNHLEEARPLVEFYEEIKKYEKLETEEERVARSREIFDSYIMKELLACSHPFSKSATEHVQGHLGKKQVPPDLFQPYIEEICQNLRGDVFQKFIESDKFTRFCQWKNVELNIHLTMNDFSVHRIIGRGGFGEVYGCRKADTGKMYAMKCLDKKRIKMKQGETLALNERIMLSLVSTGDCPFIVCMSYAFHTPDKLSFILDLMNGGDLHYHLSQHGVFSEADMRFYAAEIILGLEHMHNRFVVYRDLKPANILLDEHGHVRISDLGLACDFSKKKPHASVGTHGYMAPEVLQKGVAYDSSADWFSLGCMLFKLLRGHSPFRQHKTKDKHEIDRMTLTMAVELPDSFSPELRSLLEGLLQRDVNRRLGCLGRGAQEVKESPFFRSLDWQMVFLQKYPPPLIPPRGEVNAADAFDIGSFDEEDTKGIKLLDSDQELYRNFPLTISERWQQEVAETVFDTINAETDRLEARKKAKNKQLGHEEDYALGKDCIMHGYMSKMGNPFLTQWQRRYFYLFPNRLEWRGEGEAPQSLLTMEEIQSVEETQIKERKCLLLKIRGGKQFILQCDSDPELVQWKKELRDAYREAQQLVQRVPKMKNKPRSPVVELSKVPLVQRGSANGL

[7] = target: ABL1 (human) (UniProt P00519)
[8] = target: HIPK4 (human) (UniProt Q8NE63)
[9] = target: EPHA6 (human) (UniProt Q9UF33)
[10] = target: OXSR1 (human) (UniProt O95747)
[11] = target: FGFR3 (human) (UniProt P22607)
[12] = target: STK24 (human) (UniProt Q9Y6E0)
[13] = target: NEK4 (human) (UniProt P51957)
[14] = target: ULK3 (human) (UniProt Q6PHR2)
[15] = target: SRPK2 (human) (UniProt P78362)
[16] = target: TGFBR2 (human) (UniProt P37173)
[17] = target: DAPK1 (human) (UniProt P53355)
[18] = target: PDGFRB (human) (UniProt P09619)
[19] = target: ACVRL1 (human) (UniProt P37023)
Sequence of ACVRL1 (human) (P37023 whole entry, looked up): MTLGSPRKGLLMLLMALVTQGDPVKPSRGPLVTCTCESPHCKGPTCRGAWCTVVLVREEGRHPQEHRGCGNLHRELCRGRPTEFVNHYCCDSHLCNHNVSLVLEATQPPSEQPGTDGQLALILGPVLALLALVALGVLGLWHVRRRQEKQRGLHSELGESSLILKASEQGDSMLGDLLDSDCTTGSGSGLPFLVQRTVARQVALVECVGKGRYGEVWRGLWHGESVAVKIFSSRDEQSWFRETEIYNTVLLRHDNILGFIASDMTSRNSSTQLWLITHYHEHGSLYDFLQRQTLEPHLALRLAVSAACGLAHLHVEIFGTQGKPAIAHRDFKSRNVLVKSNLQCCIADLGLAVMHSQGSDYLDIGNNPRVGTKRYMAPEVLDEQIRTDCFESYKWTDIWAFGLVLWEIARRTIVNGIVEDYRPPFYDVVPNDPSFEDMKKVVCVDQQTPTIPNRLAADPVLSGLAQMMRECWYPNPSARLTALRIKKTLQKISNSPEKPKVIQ

[20] = target: NEK7 (human) (UniProt Q8TDX7)
Sequence of NEK7 (human) (Q8TDX7 whole entry, looked up): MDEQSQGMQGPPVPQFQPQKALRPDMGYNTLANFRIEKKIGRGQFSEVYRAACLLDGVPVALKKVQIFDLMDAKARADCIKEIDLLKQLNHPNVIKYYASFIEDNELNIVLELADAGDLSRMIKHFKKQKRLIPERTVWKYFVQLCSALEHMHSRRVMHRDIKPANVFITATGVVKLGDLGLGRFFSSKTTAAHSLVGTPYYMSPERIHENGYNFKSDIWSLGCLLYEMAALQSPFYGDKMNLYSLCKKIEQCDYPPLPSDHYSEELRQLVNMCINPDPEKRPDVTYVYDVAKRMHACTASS

[21] = target: BRAF (human) (UniProt P15056)
[22] = target: CSNK2A2 (human) (UniProt P19784)
[23] = target: EPHB2 (human) (UniProt P29323)
[24] = target: DMPK (human) (UniProt Q09013)
[25] = target: MYO3B (human) (UniProt Q8WXR4)
[26] = target: TYRO3 (human) (UniProt Q06418)
[27] = target: LTK (human) (UniProt P29376)
[28] = target: CAMK1D (human) (UniProt Q8IU85)
[29] = target: PRKACG (human) (UniProt P22612)
[30] = target: CAMKK2 (human) (UniProt Q96RR4)
[31] = target: PIM1 (human) (UniProt P11309)
[32] = target: MAPK12 (human) (UniProt P53778)
Sequence of MAPK12 (human) (P53778 whole entry, looked up): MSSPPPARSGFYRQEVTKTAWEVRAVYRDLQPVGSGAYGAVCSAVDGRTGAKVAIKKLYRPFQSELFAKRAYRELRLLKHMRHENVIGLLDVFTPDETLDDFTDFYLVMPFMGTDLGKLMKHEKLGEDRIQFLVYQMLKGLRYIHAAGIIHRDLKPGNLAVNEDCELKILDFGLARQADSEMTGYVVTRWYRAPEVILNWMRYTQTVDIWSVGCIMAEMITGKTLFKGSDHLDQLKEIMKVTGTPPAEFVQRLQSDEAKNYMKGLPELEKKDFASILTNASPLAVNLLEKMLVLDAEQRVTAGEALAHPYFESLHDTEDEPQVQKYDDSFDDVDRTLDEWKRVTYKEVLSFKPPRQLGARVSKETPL

[33] = target: TTK (human) (UniProt P33981)
[34] = target: PTK6 (human) (UniProt Q13882)
[35] = target: DYRK1A (human) (UniProt Q13627)
[36] = target: RPS6KB2 (human) (UniProt Q9UBS0)
Sequence of RPS6KB2 (human) (Q9UBS0 whole entry, looked up): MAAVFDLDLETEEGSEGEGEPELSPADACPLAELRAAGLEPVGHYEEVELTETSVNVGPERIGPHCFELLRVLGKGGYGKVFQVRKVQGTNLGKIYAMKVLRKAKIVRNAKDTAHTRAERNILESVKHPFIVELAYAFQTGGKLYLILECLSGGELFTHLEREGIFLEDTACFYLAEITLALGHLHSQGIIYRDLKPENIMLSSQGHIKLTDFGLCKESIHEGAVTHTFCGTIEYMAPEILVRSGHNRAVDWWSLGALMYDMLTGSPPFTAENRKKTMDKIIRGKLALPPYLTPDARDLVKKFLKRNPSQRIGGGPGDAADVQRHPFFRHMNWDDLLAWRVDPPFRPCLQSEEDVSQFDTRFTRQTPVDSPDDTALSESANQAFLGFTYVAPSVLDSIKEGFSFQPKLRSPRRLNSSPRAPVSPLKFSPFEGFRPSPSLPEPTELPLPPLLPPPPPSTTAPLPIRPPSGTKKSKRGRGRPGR

[37] = target: EGFR (human) (UniProt P00533)
[38] = target: TLK2 (human) (UniProt Q86UE8)
[39] = target: TSSK1B (human) (UniProt Q9BXA7)
[40] = target: PRKCG (human) (UniProt P05129)
[41] = system: ARAF (human), P10398 [Y301D/Y302D]

Sequence of STK38 (human) (Q15208 whole entry, looked up): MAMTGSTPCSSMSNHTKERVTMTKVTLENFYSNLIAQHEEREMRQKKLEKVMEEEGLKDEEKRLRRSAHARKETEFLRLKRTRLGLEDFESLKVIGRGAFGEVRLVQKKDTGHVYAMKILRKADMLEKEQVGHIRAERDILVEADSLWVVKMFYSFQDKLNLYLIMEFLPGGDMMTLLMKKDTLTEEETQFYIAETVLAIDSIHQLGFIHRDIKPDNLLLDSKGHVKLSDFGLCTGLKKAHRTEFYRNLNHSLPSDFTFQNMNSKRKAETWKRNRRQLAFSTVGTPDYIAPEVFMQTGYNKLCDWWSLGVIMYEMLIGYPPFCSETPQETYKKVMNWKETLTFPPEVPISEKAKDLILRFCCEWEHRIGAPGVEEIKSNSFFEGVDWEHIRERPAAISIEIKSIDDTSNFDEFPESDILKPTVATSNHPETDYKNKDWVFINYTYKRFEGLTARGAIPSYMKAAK
Sequence of CDC42BPA (human) (Q5VT25 whole entry, looked up): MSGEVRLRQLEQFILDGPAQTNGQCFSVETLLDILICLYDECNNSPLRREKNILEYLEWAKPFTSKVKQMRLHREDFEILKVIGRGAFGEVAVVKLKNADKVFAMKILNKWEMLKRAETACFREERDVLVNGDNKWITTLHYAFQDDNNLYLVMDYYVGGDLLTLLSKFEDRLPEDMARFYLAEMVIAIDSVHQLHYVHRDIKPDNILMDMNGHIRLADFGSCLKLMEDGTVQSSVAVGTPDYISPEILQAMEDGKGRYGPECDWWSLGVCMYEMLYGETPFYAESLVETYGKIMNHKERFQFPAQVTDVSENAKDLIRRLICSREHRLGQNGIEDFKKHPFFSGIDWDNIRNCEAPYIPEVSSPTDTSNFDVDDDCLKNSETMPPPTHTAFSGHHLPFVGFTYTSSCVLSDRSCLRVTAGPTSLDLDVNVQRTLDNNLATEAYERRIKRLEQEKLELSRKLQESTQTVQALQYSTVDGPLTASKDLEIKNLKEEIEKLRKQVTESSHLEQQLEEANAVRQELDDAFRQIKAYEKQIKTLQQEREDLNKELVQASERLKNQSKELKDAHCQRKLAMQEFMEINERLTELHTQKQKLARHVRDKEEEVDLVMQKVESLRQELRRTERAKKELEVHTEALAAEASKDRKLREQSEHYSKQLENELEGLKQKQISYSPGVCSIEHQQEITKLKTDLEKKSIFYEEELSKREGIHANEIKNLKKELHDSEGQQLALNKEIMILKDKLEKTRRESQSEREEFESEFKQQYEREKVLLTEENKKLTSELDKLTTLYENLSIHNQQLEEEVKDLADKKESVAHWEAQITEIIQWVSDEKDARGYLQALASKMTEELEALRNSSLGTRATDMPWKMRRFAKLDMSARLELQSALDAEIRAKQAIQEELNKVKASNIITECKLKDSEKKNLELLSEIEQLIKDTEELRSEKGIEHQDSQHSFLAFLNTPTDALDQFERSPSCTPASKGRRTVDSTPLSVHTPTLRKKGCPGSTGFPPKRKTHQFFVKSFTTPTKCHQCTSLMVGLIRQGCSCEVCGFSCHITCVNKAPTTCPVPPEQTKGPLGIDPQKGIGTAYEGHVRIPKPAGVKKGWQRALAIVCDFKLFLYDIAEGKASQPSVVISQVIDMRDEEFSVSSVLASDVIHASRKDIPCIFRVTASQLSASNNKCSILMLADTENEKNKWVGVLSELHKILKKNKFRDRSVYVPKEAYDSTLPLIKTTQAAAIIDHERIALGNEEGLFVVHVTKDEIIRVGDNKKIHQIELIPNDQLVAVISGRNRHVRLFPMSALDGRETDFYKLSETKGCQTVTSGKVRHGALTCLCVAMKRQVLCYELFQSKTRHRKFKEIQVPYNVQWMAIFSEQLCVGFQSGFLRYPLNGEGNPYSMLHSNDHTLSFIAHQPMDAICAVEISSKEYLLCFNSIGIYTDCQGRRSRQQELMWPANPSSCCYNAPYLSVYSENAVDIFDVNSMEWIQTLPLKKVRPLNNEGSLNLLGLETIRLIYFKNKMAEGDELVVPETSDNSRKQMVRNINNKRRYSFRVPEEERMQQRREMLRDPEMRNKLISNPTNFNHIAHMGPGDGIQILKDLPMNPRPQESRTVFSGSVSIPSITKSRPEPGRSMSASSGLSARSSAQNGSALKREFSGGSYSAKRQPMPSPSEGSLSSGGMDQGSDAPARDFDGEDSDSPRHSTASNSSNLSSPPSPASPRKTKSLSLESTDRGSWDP
Sequence of LCK (human) (P06239 whole entry, looked up): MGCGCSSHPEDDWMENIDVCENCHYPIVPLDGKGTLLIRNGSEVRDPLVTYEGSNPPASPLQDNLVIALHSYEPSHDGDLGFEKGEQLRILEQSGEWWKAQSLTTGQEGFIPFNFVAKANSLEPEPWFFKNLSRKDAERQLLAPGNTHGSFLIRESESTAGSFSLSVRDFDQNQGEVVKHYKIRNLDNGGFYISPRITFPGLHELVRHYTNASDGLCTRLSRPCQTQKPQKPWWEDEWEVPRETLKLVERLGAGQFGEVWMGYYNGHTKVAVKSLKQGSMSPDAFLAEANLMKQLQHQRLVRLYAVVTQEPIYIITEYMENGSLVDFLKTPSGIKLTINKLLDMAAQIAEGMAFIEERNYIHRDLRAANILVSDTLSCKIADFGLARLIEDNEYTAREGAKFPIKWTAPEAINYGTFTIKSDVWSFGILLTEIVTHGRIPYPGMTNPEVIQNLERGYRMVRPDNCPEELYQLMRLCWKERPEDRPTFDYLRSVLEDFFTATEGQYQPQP

## COc1ccc(-c2cnc3c(-c4ccsc4)cnn3c2)cc1
[1]
  residual activity: 81.6%
[2]
  residual activity: 94%
[3]
  residual activity: 90.8%
[4]
  residual activity: 86.8%
[5]
  residual activity: 102%
[6]
  residual activity: 100%
[7]
  residual activity: 72.9%
[8]
  residual activity: 108%
[9]
  residual activity: 85.1%
[10]
  residual activity: 90.3%
[11]
  residual activity: 81.5%
[12]
  residual activity: 95.5%
[13]
  residual activity: 80%
[14]
  residual activity: 79.4%
[15]
  residual activity: 94.1%
[16]
  residual activity: 84.1%
[17]
  residual activity: 103%
[18]
  residual activity: 63.4%
[19]
  residual activity: 76.4%
[20]
  residual activity: 109%
[21]
  residual activity: 85.9%
[22]
  residual activity: 87.3%
[23]
  residual activity: 80.5%
[24]
  residual activity: 100%
[25]
  residual activity: 84%
[26]
  residual activity: 91.8%
[27]
  residual activity: 98.9%
[28]
  residual activity: 93.5%
[29]
  residual activity: 93.9%
[30]
  residual activity: 72.9%
[31]
  residual activity: 97.5%
[32]
  residual activity: 94.8%
[33]
  residual activity: 94.2%
[34]
  residual activity: 77.5%
[35]
  residual activity: 69.7%
[36]
  residual activity: 100%
[37]
  residual activity: 92.3%
[38]
  residual activity: 96.2%
[39]
  residual activity: 99.1%
[40]
  residual activity: 112%

## Cc1ccc(NC(=O)c2ccc(CN3CCN(C)CC3)cc2)cc1Nc1nc(-c2cccnc2)cs1
[1]
  residual activity: 7.63%
[2]
  residual activity: 104%
[3]
  residual activity: 110%
[4]
  residual activity: 104%
[5]
  residual activity: 95.9%
[6]
  residual activity: 121%
[7]
  residual activity: 49.8%
[8]
  residual activity: 101%
[9]
  residual activity: 98.2%
[10]
  residual activity: 95.6%
[11]
  residual activity: 94.3%
[12]
  residual activity: 104%
[13]
  residual activity: 92.4%
[14]
  residual activity: 104%
[15]
  residual activity: 101%
[16]
  residual activity: 101%
[17]
  residual activity: 97.5%
[41]
  residual activity: 102%
[18]
  residual activity: 17.3%
[19]
  residual activity: 103%
[20]
  residual activity: 96.3%
[21]
  residual activity: 92.3%
[22]
  residual activity: 86.7%
[23]
  residual activity: 95.3%
[24]
  residual activity: 104%
[25]
  residual activity: 82.6%
[26]
  residual activity: 98.9%
[27]
  residual activity: 102%
[28]
  residual activity: 110%
[29]
  residual activity: 110%
[30]
  residual activity: 101%
[31]
  residual activity: 86.4%
[32]
  residual activity: 96.9%
[33]
  residual activity: 112%
[34]
  residual activity: 79.2%
[35]
  residual activity: 106%
[36]
  residual activity: 101%
[37]
  residual activity: 99.6%
[38]
  residual activity: 94.5%
[39]
  residual activity: 100%
[40]
  residual activity: 95.8%

## CC(C)[C@H](CO)Nc1nc(Nc2cccc(Cl)c2)c2ncn(C(C)C)c2n1
[1]
  residual activity: 86.9%
[2]
  residual activity: 109%
[3]
  residual activity: 97.9%
[4]
  residual activity: 92.3%
[5]
  residual activity: 90.5%
[6]
  residual activity: 103%
[7]
  residual activity: 75.6%
[8]
  residual activity: 88.7%
[9]
  residual activity: 93.8%
[10]
  residual activity: 94.4%
[11]
  residual activity: 99.2%
[12]
  residual activity: 80.8%
[13]
  residual activity: 94.4%
[14]
  residual activity: 59.6%
[15]
  residual activity: 53.6%
[16]
  residual activity: 98.1%
[17]
  residual activity: 99.7%
[41]
  residual activity: 96.5%
[18]
  residual activity: 106%
[19]
  residual activity: 96.7%
[20]
  residual activity: 101%
[21]
  residual activity: 92.7%
[22]
  residual activity: 93.2%
[23]
  residual activity: 99.3%
[24]
  residual activity: 108%
[25]
  residual activity: 94.2%
[26]
  residual activity: 98.9%
[27]
  residual activity: 100%
[28]
  residual activity: 103%
[29]
  residual activity: 113%
[30]
  residual activity: 70.9%
[31]
  residual activity: 104%
[32]
  residual activity: 106%
[33]
  residual activity: 116%
[34]
  residual activity: 89.2%
[35]
  residual activity: 65.4%
[36]
  residual activity: 101%
[37]
  residual activity: 94.2%
[38]
  residual activity: 94.7%
[39]
  residual activity: 102%
[40]
  residual activity: 98.2%
